Test results as given in US9227967B2, “Inhibitor compounds of semicarbazide-sensitive amine oxidases” (Proximagen Limited, priority 2010, dated 2016).

These compounds were tested against T1, human SSAO (Homo sapiens, UniProt Q16853) (assay: SSAO enzyme inhibition assay (benzylamine substrate; HRP-coupled hydrogen peroxide detection or 14C-benzaldehyde detection)). Conditions: purified recombinantly expressed human SSAO, benzylamine as substrate, r.t.; read-out: SSAO inhibitory activity IC50.
T1 construct: made in house
T1 sequence (Q16853 29-763 limits assumed): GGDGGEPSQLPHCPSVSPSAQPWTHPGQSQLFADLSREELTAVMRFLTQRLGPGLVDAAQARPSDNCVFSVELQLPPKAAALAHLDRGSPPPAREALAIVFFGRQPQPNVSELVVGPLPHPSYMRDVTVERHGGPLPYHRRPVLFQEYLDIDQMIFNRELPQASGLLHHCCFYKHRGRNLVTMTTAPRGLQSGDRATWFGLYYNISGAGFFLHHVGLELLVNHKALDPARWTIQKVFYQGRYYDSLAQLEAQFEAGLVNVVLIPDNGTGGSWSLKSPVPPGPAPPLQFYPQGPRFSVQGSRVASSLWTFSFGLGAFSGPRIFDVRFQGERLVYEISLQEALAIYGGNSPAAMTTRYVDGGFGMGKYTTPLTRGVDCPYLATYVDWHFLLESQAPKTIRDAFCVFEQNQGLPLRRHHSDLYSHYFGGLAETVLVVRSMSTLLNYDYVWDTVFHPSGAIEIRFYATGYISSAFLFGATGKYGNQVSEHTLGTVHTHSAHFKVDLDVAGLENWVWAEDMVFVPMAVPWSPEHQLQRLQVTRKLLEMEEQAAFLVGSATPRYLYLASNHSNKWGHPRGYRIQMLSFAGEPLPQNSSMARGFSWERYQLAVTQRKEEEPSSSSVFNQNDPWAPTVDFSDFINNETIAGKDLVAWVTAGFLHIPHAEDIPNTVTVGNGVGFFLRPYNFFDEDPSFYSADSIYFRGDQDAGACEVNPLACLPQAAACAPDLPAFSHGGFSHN
Format: biochemical
Protocol: All primary assays were performed at r.t. with purified recombinantly expressed human SSAO. Enzyme was prepared essentially as described in Öhman et al. (Protein Expression and Purification 46 (2006) 321-331). In addition, secondary- and selectivity assays were performed using SSAO prepared from various tissues or purified rat recombinant SSAO. The enzyme activity was assayed with benzylamine as substrate by measuring either benzaldehyde production, using ^14C-labeled substrate, or by utilizing the production of hydrogen peroxide in a horseradish peroxidise (HRP) coupled reaction. Briefly, test compounds were dissolved in dimethyl sulfoxide (DMSO) to a concentration of 10 mM. Dose-response measurements were assayed by either creating 1:10 serial dilutions in DMSO to produce a 7 point curve or by making 1:3 serial dilutions in DMSO to produce 11 point curves. The top concentrations were adjusted depending on the potency of the compounds and subsequent dilution in reaction buffer yielded a final DMSO concentration ≦2%.
In a horseradish peroxidise (HRP) coupled reaction, hydrogen peroxide oxidation of 10-acetyl-3,7-dihydroxyphenoxazine produced resorufin, which is a highly fluorescent compound (Zhout and Panchuk-Voloshina. Analytical Biochemistry 253 (1997) 169-174; Amplex® Red Hydrogen Peroxide/peroxidise Assay kit, Invitrogen A22188). Enzyme and compounds in 50 mM sodium phosphate, pH 7.4 were set to pre-incubate in flat-bottomed microtiter plates for approximately 15 minutes before initiating the reaction by addition of a mixture of HRP, benzylamine and Amplex reagent. Benzylamine concentration was fixed at a concentration corresponding to the Michaelis constant, determined using standard procedures. Fluorescence intensity was then measured at several time points during 1-2 hours, exciting at 544 nm n and reading the emission at 590 nm. For the human SSAO assay final concentrations of the reagents in the assay wells were: SSAO enzyme 1 μg/ml, benzylamine 100 μM, Amplex reagent 20 μM, HRP 0.1 U/mL and varying concentrations of test compound. The inhibition was measured as % decrease of the signal compared to a control without inhibitor (only diluted DMSO). The background signal from a sample containing no SSAO enzyme was subtracted from all data points. Data was fitted to a four parameter logistic model and IC50 values were calculated using the GraphPad Prism 4 or XLfit 4 programs.
SSAO activity was assayed using 14C-labeled benzylamine and analysed by measuring radioactive benzaldehyde. In a white 96-well optiplate (Packard), 20 μL of diluted test compound was pre-incubated at r.t. with 20 μL SSAO enzyme for approximately 15 minutes with continuous agitation. All dilutions were made with PBS. The reaction was initiated by adding 20 μL of the benzylamine substrate solution containing [7-14C] Benzylamine hydrochloride (CFA589, GE Healthcare). The plate was incubated for 1 hour as above after which the reaction was stopped by acidification (10 μL 1 M HCl). Then 90 μL Micro Scint-E solution (Perkin-Elmer) was added to each well and the plate was continuously mixed for 15 minutes. Phase separation occurred instantly and activity was read in a Topcount scintillation counter (Perkin-Elmer). In the final reaction well, human recombinant SSAO concentration was 10 μg/ml. In order to optimize sensitivity, the substrate concentration was decreased as compared to the HRP coupled assay in order to get a higher fraction of radioactive product. In the human SSAO assay, benzylamine concentration was 40 μM (0.2 μCi/mL). Data was analysed as above.

Structure (SMILES)	IC50 [nM]
OC1CCN(Cc2cn(-c3ccc(Cl)cc3)c3cnccc23)CC1 [Compound 30, 1-{[1-(4-Chlorophenyl)-1H-pyrrolo[2,3-c]pyridin-3-yl]methyl}piperidin-4-ol]	100 to 500
OCCNCc1cn(-c2ccc(Cl)cc2)c2cnccc12 [Compound 31, 2-({[1-(4-Chlorophenyl)-1H-pyrrolo[2,3-c]pyridin-3-yl]methyl}amino)ethan-1-ol]	500 to 2500
c1ccc(-n2nc(C3CCOCC3)c3ccncc32)cc1 [Compound 40, 3-(Oxan-4-yl)-1-phenyl-1H-pyrazolo[3,4-c]pyridine]	500 to 2500
N#Cc1ccc(-n2nc(C3CCOCC3)c3ccncc32)cc1 [Compound 41, 4-[3-(Oxan-4-yl)-1H-pyrazolo[3,4-c]pyridin-1-yl]benzonitrile]	500 to 2500
FC(F)c1ccc(-n2nc(C3CCOCC3)c3ccncc32)cc1 [Compound 42, 1-[4-(Difluoromethyl)phenyl]-3-(oxan-4-yl)-1H-pyrazolo[3,4-c]pyridine]	100 to 500
Cc1ccc(-n2nc(C3CCOCC3)c3ccncc32)c(F)c1 [Compound 43, 1-(2-Fluoro-4-methylphenyl)-3-(oxan-4-yl)-1H-pyrazolo[3,4-c]pyridine]	100 to 500
Fc1cc(Cl)ccc1-n1nc(C2CCOCC2)c2ccncc21 [Compound 44, 1-(4-Chloro-2-fluorophenyl)-3-(oxan-4-yl)-1H-pyrazolo[3,4-c]pyridine]	< 100
Cc1ccc(-n2nc(C3CCOCC3)c3ccncc32)c(C)c1 [Compound 45, 1-(2,4-Dimethylphenyl)-3-(oxan-4-yl)-1H-pyrazolo[3,4-c]pyridine]	500 to 2500
Cc1ccc(-n2nc(C3CCOCC3)c3ccncc32)nc1 [Compound 46, 5-Methyl-2-[3-(oxan-4-yl)-1H-pyrazolo[3,4-c]pyridin-1-yl]pyridine]	500 to 2500
Cc1ccc(-n2nc(C3CCOCC3)c3ccncc32)cn1 [Compound 47, 2-Methyl-5-[3-(oxan-4-yl)-1H-pyrazolo[3,4-c]pyridin-1-yl]pyridine]	500 to 2500
FC1(F)CCN(c2nn(-c3ccc(Cl)cc3)c3cnccc23)C1 [Compound 48, 1-[1-(4-Chlorophenyl)-1H-pyrazolo[3,4-c]pyridin-3-yl]-3,3-difluoropyrrolidine]	100 to 500
OC1CCN(c2nn(-c3ccc(Cl)cc3)c3cnccc23)C1 (centres unmarked) [Compound 49, 1-[1-(4-Chlorophenyl)-1H-pyrazolo[3,4-c]pyridin-3-yl]pyrrolidin-3-ol]	< 100
COC1CCN(c2nn(-c3ccc(C)cc3)c3cnccc23)C1 (centres unmarked) [Compound 50, 3-Methoxy-1-[1-(4-methylphenyl)-1H-pyrazolo[3,4-c]pyridin-3-yl]pyrrolidine]	< 100
Clc1ccc(-n2nc(N3CCCCC3)c3ccncc32)cc1 [Compound 51, 1-[1-(4-Chlorophenyl)-1H-pyrazolo[3,4-c]pyridin-3-yl]piperidine]	500 to 2500
FC1(F)CCN(c2nn(-c3ccc(Cl)cc3)c3cnccc23)CC1 [Compound 52, 1-[1-(4-Chlorophenyl)-1H-pyrazolo[3,4-c]pyridin-3-yl]-4,4-difluoropiperidine]	100 to 500

Other lines, results leading:

IC50 [nM]	Structure (SMILES)
< 100	OC1CCN(c2nn(-c3ccc(Cl)cc3)c3cnccc23)CC1 [Compound 53, 1-[1-(4-Chlorophenyl)-1H-pyrazolo[3,4-c]pyridin-3-yl]piperidin-4-ol]
< 100	Cc1ccc(-n2nc(N3CCC(C(N)=O)CC3)c3ccncc32)cc1 [Compound 54, 1-[1-(4-Methylphenyl)-1H-pyrazolo[3,4-c]pyridin-3-yl]piperidine-4-carboxamide]
100 to 500	Fc1ccc(-n2nc(N3CCOCC3)c3ccncc32)cc1 [Compound 55, 4-[1-(4-Fluorophenyl)-1H-pyrazolo[3,4-c]pyridin-3-yl]morpholine]
< 100	Clc1ccc(-n2nc(N3CCOCC3)c3ccncc32)cc1 [Compound 56, 4-[1-(4-Chlorophenyl)-1H-pyrazolo[3,4-c]pyridin-3-yl]morpholine]
< 100	Cc1ccc(-n2nc(N3CCOCC3)c3ccncc32)cc1 [Compound 57, 2,2,2-Trifluoroacetic acid; 4-[1-(4-methylphenyl)-1H-pyrazolo[3,4-c]pyridin-3-yl]morpholine]
< 100	Cc1ccc(-n2nc(N3CCOCC3)c3ccncc32)c(F)c1 [Compound 58, 4-[1-(2-Fluoro-4-methylphenyl)-1H-pyrazolo[3,4-c]pyridin-3-yl]morpholine]
< 100	CC1CN(c2nn(-c3ccc(Cl)cc3)c3cnccc23)CCO1 (centres unmarked) [Compound 59, 4-[1-(4-Chlorophenyl)-1H-pyrazolo[3,4-c]pyridin-3-yl]-2-methylmorpholine]
< 100	CC1COCCN1c1nn(-c2ccc(Cl)cc2)c2cnccc12 (centres unmarked) [Compound 60, 4-[1-(4-Chlorophenyl)-1H-pyrazolo[3,4-c]pyridin-3-yl]-3-methylmorpholine]
100 to 500	Cc1ccc(-n2nc(N3CCOC(CC(C)C)C3)c3ccncc32)cc1 (centres unmarked) [Compound 61, 4-[1-(4-Methylphenyl)-1H-pyrazolo[3,4-c]pyridin-3-yl]-2-(2-methylpropyl)morpholine]
100 to 500	C[C@@H]1CN(c2nn(-c3ccc(Cl)cc3)c3cnccc23)C[C@H](C)O1 [Compound 62, (2S,6R)-4-[1-(4-Chlorophenyl)-1H-pyrazolo[3,4-c]pyridin-3-yl]-2,6-dimethylmorpholine]
< 100	Cc1ccc(-n2nc(N3CC4CCC(C3)O4)c3ccncc32)cc1 [Compound 63, 3-[1-(4-Methylphenyl)-1H-pyrazolo[3,4-c]pyridin-3-yl]-8-oxa-3-azabicyclo[3.2.1]octane]
< 100	Cc1ccc(-n2nc(N3CCOC(C)(C)C3)c3ccncc32)cc1 [Compound 64, 2,2-Dimethyl-4-[1-(4-methylphenyl)-1H-pyrazolo[3,4-c]pyridin-3-yl]morpholine]
100 to 500	Cc1ccc(-n2nc(N3CCOCC3(C)C)c3ccncc32)cc1 [Compound 65]
< 100	COC(=O)C1COCCN1c1nn(-c2ccc(C)cc2)c2cnccc12 (centres unmarked) [Compound 66, Methyl 4-[1-(4-methylphenyl)-1H-pyrazolo[3,4-c]pyridin-3-yl]morpholine-3-carboxylate]
< 100	Cc1ccc(-n2nc(N3CCCOCC3)c3ccncc32)cc1 [Compound 67, 4-[1-(4-Methylphenyl)-1H-pyrazolo[3,4-c]pyridin-3-yl]-1,4-oxazepane]
< 100	Cc1ccc(-n2nc(N3CCNC(=O)C3)c3ccncc32)cc1 [Compound 68, 4-[1-(4-Methylphenyl)-1H-pyrazolo[3,4-c]pyridin-3-yl]piperazin-2-one]
100 to 500	COCCN(C)c1nn(-c2ccc(C)cc2)c2cnccc12 [Compound 69, N-(2-Methoxyethyl)-N-methyl-1-(4-methylphenyl)-1H-pyrazolo[3,4-c]pyridin-3-amine]
